System: 997726-040-R-J2-PDC tumor spheroids, viability
Assay: Anticancer human tumor 997726-040-R-J2-PDC patient-derived squamous cell lung carcinoma cell line growth inhibition [PI3K]
Conditions: spheroids with HUVEC and MSC; for IC50: curve of first compound; for viability, T/C: stronger effect = lower value
Text: Combinatorial screen of targeted agents with the PI3K inhibitors inavolisib, alpelisib, duvelisib, and copanlisib in multi-cell type tumor spheroids
A high-throughput screen of multi-cell type tumor spheroids was designed to identify active combinations of targeted small molecules and PI3K pathway inhibitors. Complex spheroids include a stromal component modeled by human endothelial cells (HUVEC) and fibroblasts modeled by human mesenchymal stem cells (MSCs). The concentration ranges selected for each drug and investigational agent were based upon clinically achievable concentrations if the clinical Cmax of the agent was known.
Compounds. The drugs and investigational agents: inavolisib (NSC800729), alpelisib (NSC765974), duvelisib (NSC772469), copanlisib (NSC816437), ipatasertib (NSC767898), afuresertib (NSC778305), talazoparib (NSC767125), sapanisertib (NSC764658), selumetinib (NSC741078), tovorafenib (DAY101, NSC766906), vemurafenib (NSC761431), ravoxertinib (NSC781343), sotorasib (NSC818433), MRTX1133 (NSC 836407), abemaciclib (NSC 768073), palbociclib (NSC758247), venetoclax (NSC 766270), SY5609 (NSC837396), enzalutamide (NSC755605), and darolutamide (NSC825331), were obtained from the National Cancer Institute (NCI) Developmental Therapeutics Program Chemical Repository. The FDA-approved anticancer drug set is available from the NCI Developmental Therapeutics Program. […] The stock solutions were prepared in dimethyl sulfoxide (DMSO, Sigma-Aldrich, St. Louis, MO, cat. D2650) at 800-fold the tested concentration and stored at -70 degrees C prior to their use. All drugs and investigational agents were tested over a range starting from a high concentration at or near the clinical Cmax and decreasing in half-log increments. If the clinical Cmax for an agent had not been determined, the highest concentration tested was 10 microM.
Cell Culture. All cells were maintained in an incubator at 37 degrees C and 5% CO2 with 95% humidity. The PDC lines were cultured according to standard operating procedures established by the NCI PDMR (https://pdmr.cancer.gov/sops/default.htm). All PDCs were thawed and cultured in Matrigel-coated flasks prepared with a working solution of 1X Ham's F-12 nutrient mix, without supplementation (Invitrogen, Waltham, MA, cat. 11765054), 100 U/mL penicillin-streptomycin (Invitrogen, cat. 15140122), and 2.5% Matrigel (Corning Inc., Corning, NY, cat. 354248) for the first three passages. The 354836-022-R-J1-PDC, 475296-252-R-J1-PDC, and 997726-040-R-J2-PDC lines were cultured in 6A media, which includes advanced DMEM/F-12 (Thermo Fisher Scientific, cat. 12634028), 10 mM HEPES (Thermo Fisher Scientific, cat. 15630080), 1X GlutaMAX supplement (Thermo Fisher Scientific, cat. 35050061), 0.1 mg/mL primocin (InvivoGen, San Diego, CA, cat. ant-pm-2), 10% defined fetal bovine serum, heat inactivated (HyClone Laboratories Inc., Logan, UT, cat. SH30070.03HI), 50% L-WRN conditioned media (ATCC, cat. CRL-3276), 1.25 mM N-Acetyl-L-cysteine (Sigma-Aldrich, cat. A9165), 10 mM nicotinamide (Sigma-Aldrich, cat. N0636), 1X B-27 supplement (Thermo Fisher Scientific, cat. 17504044), 1X N-2 supplement (Thermo Fisher Scientific, cat. 17502048), and 10 microM Y-27632 dihydrochloride (Tocris Bioscience, Bristol, United Kingdom, cat. 1254). The 624824-186-R-J2-PDC line was cultured in 6C/Colon 1B media, which includes all 6A media components plus 50 ng/mL human EGF recombinant protein (Thermo Fisher Scientific, cat. PHG0311). […]

[1] = second compound 0.0316 µM, first compound 0.0316 µM
[2] = second compound 0.0316 µM, first compound 0.1 µM
[3] = second compound 0.0316 µM, first compound 0.316 µM
[4] = second compound 0.0316 µM, first compound 1 µM
[5] = second compound 0.0316 µM, first compound 3.16 µM
[6] = second compound 0.0316 µM, first compound 10 µM
[7] = second compound 0.1 µM, first compound 0.0316 µM
[8] = second compound 0.1 µM, first compound 0.1 µM
[9] = second compound 0.1 µM, first compound 0.316 µM
[10] = second compound 0.1 µM, first compound 1 µM
[11] = second compound 0.1 µM, first compound 3.16 µM
[12] = second compound 0.1 µM, first compound 10 µM
[13] = second compound 0.316 µM, first compound 0.0316 µM
[14] = second compound 0.316 µM, first compound 0.1 µM
[15] = second compound 0.316 µM, first compound 0.316 µM
[16] = second compound 0.316 µM, first compound 1 µM
[17] = second compound 0.316 µM, first compound 3.16 µM
[18] = second compound 0.316 µM, first compound 10 µM
[19] = second compound 1 µM, first compound 0.0316 µM
[20] = second compound 1 µM, first compound 0.1 µM
[21] = second compound 1 µM, first compound 0.316 µM
[22] = second compound 1 µM, first compound 1 µM
[23] = second compound 1 µM, first compound 3.16 µM
[24] = second compound 1 µM, first compound 10 µM
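Note: spheroids exposed to compounds for seven days before readout.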

CC(C)NCC(C(=O)N1CCN(c2ncnc3c2C(C)CC3O)CC1)c1ccc(Cl)cc1 (centres undefined) + COc1c(OCCCN2CCOCC2)ccc2c3n(c(=NC(=O)c4cnc(N)nc4)nc12)CCN3
IC50 (second compound 0.00316 µM): 190 nM | IC50 (second compound 0.01 µM): 79.8 nM | IC50 (second compound 0.0316 µM): < 31.6 nM | IC50 (second compound 0.1 µM): < 31.6 nM | IC50 (second compound 0.316 µM): < 31.6 nM | IC50 (second compound 1 µM): < 31.6 nM | viability, T/C (second compound 0.00316 µM, first compound 0.0316 µM): 67.1% | viability, T/C (second compound 0.00316 µM, first compound 0.1 µM): 55.3% | viability, T/C (second compound 0.00316 µM, first compound 0.316 µM): 46% | viability, T/C (second compound 0.00316 µM, first compound 1 µM): 29.1% | viability, T/C (second compound 0.00316 µM, first compound 3.16 µM): 15.7% | viability, T/C (second compound 0.00316 µM, first compound 10 µM): 9.1% | viability, T/C (second compound 0.01 µM, first compound 0.0316 µM): 51.6% | viability, T/C (second compound 0.01 µM, first compound 0.1 µM): 49.6% | viability, T/C (second compound 0.01 µM, first compound 0.316 µM): 42.8% | viability, T/C (second compound 0.01 µM, first compound 1 µM): 27% | viability, T/C (second compound 0.01 µM, first compound 3.16 µM): 16.8% | viability, T/C (second compound 0.01 µM, first compound 10 µM): 9.46% | viability, T/C [1]: 36.4% | viability, T/C [2]: 33.1% | viability, T/C [3]: 27% | viability, T/C [4]: 22.3% | viability, T/C [5]: 13.3% | viability, T/C [6]: 7.3% | viability, T/C [7]: 19.4% | viability, T/C [8]: 17.6% | viability, T/C [9]: 18.9% | viability, T/C [10]: 14.4% | viability, T/C [11]: 8.93% | viability, T/C [12]: 5.81% | viability, T/C [13]: 6.3% | viability, T/C [14]: 5.44% | viability, T/C [15]: 4.27% | viability, T/C [16]: 3.76% | viability, T/C [17]: 3.51% | viability, T/C [18]: 2.65% | viability, T/C [19]: 1.14% | viability, T/C [20]: 1.32% | viability, T/C [21]: 1.04% | viability, T/C [22]: 1.33% | viability, T/C [23]: 2.38% | viability, T/C [24]: 1.22%

CC1(C)CCC(Nc2ncc(C(F)(F)F)c(-c3c[nH]c4c(P(C)(C)=O)c(C#N)ccc34)n2)CN1 (centres undefined) + Cc1nc(NC(=O)N2CCCC2C(N)=O)sc1-c1ccnc(C(C)(C)C(F)(F)F)c1
IC50 (second compound 0.0316 µM): < 31.6 nM | IC50 (second compound 0.1 µM): < 31.6 nM | IC50 (second compound 0.316 µM): < 31.6 nM | IC50 (second compound 1 µM): < 31.6 nM | IC50 (second compound 3.16 µM): < 31.6 nM | IC50 (second compound 10 µM): < 31.6 nM | viability, T/C [1]: 36.8% | viability, T/C [2]: 27% | viability, T/C [3]: 30.7% | viability, T/C [4]: 29.5% | viability, T/C [5]: 28.8% | viability, T/C [6]: 5.15% | viability, T/C [7]: 27.4% | viability, T/C [8]: 28.1% | viability, T/C [9]: 27.4% | viability, T/C [10]: 29.9% | viability, T/C [11]: 29.9% | viability, T/C [12]: 5.28% | viability, T/C [13]: 23.7% | viability, T/C [14]: 21.8% | viability, T/C [15]: 21.5% | viability, T/C [16]: 24.9% | viability, T/C [17]: 21.8% | viability, T/C [18]: 2.81% | viability, T/C [19]: 16.4% | viability, T/C [20]: 13.5% | viability, T/C [21]: 16% | viability, T/C [22]: 17.5% | viability, T/C [23]: 18.1% | viability, T/C [24]: 1.51% | viability, T/C (second compound 3.16 µM, first compound 0.0316 µM): 14.2% | viability, T/C (second compound 3.16 µM, first compound 0.1 µM): 11.1% | viability, T/C (second compound 3.16 µM, first compound 0.316 µM): 11.9% | viability, T/C (second compound 3.16 µM, first compound 1 µM): 12.9% | viability, T/C (second compound 3.16 µM, first compound 3.16 µM): 11.5% | viability, T/C (second compound 3.16 µM, first compound 10 µM): 1.02% | viability, T/C (second compound 10 µM, first compound 0.0316 µM): 7.35% | viability, T/C (second compound 10 µM, first compound 0.1 µM): 6.65% | viability, T/C (second compound 10 µM, first compound 0.316 µM): 6.01% | viability, T/C (second compound 10 µM, first compound 1 µM): 7.48% | viability, T/C (second compound 10 µM, first compound 3.16 µM): 6.58% | viability, T/C (second compound 10 µM, first compound 10 µM): 0.41%
